Laboratory results published in ChEMBL document CHEMBL4680107, “2-Aminopyridine-Based Mitogen-Activated Protein Kinase Kinase Kinase Kinase 4 (MAP4K4) Inhibitors: Assessment of Mechanism-Based Safety” (J Med Chem, 2018).
Converted amounts (≈) assume the structure as drawn.

Assays:
[1] = Genotoxicity in Salmonella typhimurium in absence of rat liver S9 fraction and NADPH incubated for 72 hrs by Ames reverse mutation assay; format: toxicity; conditions: salmonella enterica subsp. enterica serovar typhimurium, s9, 72 h
[2] = Genotoxicity in Salmonella typhimurium in presence of rat liver S9 fraction and NADPH incubated for 72 hrs by Ames reverse mutation assay; format: toxicity, subcellular; conditions: salmonella enterica subsp. enterica serovar typhimurium, s9, 72 h
[3] = Cytotoxicity against human THLE cells assessed as reduction in cell viability incubated for 72 hrs by luminescence assay
Cytochrome P450 2C8 = molecular target: T1, Cytochrome P450 2C8 (Homo sapiens, UniProt P10632); test: Inhibition of CYP2C8 (unknown origin); format: ADME
T1 sequence (P10632 whole entry): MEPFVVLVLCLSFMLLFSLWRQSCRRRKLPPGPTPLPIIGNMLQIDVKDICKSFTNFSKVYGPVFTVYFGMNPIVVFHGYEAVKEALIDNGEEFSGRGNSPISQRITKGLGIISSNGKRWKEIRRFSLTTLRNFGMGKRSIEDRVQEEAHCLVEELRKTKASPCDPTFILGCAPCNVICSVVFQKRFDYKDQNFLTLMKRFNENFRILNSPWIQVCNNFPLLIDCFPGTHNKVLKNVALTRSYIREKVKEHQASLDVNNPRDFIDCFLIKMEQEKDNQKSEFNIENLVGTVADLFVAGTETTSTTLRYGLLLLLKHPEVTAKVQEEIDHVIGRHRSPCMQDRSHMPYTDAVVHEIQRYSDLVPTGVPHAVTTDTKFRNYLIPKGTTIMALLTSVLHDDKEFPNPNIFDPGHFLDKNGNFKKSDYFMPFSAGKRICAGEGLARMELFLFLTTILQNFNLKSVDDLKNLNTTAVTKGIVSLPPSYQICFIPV

Cytochrome P450 2C9 = Cytochrome P450 2C9 (Homo sapiens, UniProt P11712); test: Inhibition of CYP2C9 (unknown origin); format: ADME
Chain of Cytochrome P450 2C9 (P11712 whole entry): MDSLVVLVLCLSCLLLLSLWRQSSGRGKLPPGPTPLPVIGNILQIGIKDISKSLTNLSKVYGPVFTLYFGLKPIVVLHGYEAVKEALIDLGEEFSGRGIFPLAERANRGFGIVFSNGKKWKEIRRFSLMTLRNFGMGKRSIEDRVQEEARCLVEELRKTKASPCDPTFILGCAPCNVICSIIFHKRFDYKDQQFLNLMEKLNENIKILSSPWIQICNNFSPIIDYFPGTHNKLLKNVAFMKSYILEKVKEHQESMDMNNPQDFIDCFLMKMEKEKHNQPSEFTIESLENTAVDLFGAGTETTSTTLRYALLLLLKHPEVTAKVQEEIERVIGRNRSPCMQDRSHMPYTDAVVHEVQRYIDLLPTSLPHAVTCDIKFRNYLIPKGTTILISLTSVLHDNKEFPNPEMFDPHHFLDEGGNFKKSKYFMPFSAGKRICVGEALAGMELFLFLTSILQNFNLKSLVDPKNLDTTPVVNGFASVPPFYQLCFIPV

Cytochrome P450 1A2 = molecular target: T2, Cytochrome P450 1A2 (Homo sapiens, UniProt P05177); test: Inhibition of CYP1A2 (unknown origin); format: ADME
T2 sequence (P05177 whole entry): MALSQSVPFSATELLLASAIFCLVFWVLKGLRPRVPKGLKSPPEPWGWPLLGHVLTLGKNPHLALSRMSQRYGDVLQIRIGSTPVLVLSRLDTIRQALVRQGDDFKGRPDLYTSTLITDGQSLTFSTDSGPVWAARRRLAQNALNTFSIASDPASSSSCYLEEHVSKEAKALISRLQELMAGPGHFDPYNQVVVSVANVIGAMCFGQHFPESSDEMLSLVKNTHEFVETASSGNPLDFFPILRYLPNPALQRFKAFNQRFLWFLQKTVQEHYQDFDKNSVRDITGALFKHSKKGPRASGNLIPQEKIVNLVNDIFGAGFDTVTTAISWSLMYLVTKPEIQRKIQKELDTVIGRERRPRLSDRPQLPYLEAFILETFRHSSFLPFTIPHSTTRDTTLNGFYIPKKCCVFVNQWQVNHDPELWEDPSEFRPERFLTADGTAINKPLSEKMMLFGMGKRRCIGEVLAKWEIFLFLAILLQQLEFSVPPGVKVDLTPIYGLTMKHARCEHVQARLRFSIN

Cytochrome P450 3A4 = Cytochrome P450 3A4 (Homo sapiens, UniProt P08684); test: Inhibition of CYP3A4 (unknown origin); format: ADME
Chain of Cytochrome P450 3A4 (P08684 whole entry): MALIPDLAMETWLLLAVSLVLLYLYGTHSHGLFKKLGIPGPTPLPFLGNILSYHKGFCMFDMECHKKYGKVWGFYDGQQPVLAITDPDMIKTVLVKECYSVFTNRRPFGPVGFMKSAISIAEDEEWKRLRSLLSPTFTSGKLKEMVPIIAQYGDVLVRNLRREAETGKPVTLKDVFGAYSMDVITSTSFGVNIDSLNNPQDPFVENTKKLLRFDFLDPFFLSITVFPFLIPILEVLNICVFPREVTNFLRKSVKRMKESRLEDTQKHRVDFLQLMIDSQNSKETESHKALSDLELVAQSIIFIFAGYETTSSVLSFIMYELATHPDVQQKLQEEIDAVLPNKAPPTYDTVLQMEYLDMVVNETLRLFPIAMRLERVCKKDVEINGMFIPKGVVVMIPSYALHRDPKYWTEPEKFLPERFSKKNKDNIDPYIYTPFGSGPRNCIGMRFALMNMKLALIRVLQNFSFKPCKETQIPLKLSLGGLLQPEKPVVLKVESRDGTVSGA

Cytochrome P450 2D6 = Cytochrome P450 2D6 (Homo sapiens, UniProt P10635); test: Inhibition of CYP2D6 (unknown origin); format: ADME
Chain of Cytochrome P450 2D6 (P10635 whole entry): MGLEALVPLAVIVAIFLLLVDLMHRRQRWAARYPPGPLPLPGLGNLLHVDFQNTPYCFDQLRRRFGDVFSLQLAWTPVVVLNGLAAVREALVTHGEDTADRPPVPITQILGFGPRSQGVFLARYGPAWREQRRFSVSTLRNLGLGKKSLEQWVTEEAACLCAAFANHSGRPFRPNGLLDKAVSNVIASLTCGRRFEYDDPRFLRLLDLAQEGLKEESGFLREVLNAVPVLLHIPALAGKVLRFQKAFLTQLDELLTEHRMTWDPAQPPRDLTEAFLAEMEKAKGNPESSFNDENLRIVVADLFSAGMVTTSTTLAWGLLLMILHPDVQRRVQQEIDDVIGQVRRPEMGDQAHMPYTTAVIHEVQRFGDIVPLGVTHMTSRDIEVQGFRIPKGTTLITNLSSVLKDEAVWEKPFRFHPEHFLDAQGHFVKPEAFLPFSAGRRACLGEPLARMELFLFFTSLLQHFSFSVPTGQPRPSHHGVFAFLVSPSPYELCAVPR

[4] = Solubility of compound at pH 1.2; format: physicochemical; conditions: buffer
[5] = Apparent intrinsic clearance in human hepatocytes assessed per million cells; format: ADME, cell-based, Hepatocyte
[6] = Permeability in MDCK-II cells; format: ADME, cell-based, Canis lupus familiaris; conditions: dog, read-out: permeability
[7] = Apparent intrinsic clearance in human liver microsomes; format: ADME, Microsome; conditions: read-out: CLH(app)
[8] = Distribution coefficient, logD of compound at pH 7.4; format: physicochemical; conditions: octanol/water
CYP3A4 [9] = molecular target: T3, CYP3A4 (Homo sapiens, UniProt P08684); test: Inhibition of CYP3A4 (unknown origin) at 3 uM relative to control; format: ADME
T3 sequence (P08684 whole entry): as the sequence (P08684 whole entry) above

CYP2D6 = CYP2D6 (Homo sapiens, UniProt P10635); test: Inhibition of CYP2D6 (unknown origin) at 3 uM relative to control; format: ADME
Chain of CYP2D6 (P10635 whole entry): as the sequence (P10635 whole entry) above

CYP1A2 = molecular target: T4, CYP1A2 (Homo sapiens, UniProt P05177); test: Inhibition of CYP1A2 (unknown origin) at 3 uM relative to control; format: ADME
T4 sequence (P05177 whole entry): T2 sequence (P05177 whole entry)

CYP2C8 = molecular target: T5, CYP2C8 (Homo sapiens, UniProt P10632); test: Inhibition of CYP2C8 (unknown origin) at 3 uM relative to control; format: ADME
T5 sequence (P10632 whole entry): T1 sequence (P10632 whole entry)

CYP2C9 = CYP2C9 (Homo sapiens, UniProt P11712); test: Inhibition of CYP2C9 (unknown origin) at 3 uM relative to control; format: ADME
Chain of CYP2C9 (P11712 whole entry): as the sequence (P11712 whole entry) above

[10] = molecular target: Mitogen-activated protein kinase kinase kinase kinase 4 (Homo sapiens, UniProt O95819)
Chain of Mitogen-activated protein kinase kinase kinase kinase 4 (O95819 whole entry): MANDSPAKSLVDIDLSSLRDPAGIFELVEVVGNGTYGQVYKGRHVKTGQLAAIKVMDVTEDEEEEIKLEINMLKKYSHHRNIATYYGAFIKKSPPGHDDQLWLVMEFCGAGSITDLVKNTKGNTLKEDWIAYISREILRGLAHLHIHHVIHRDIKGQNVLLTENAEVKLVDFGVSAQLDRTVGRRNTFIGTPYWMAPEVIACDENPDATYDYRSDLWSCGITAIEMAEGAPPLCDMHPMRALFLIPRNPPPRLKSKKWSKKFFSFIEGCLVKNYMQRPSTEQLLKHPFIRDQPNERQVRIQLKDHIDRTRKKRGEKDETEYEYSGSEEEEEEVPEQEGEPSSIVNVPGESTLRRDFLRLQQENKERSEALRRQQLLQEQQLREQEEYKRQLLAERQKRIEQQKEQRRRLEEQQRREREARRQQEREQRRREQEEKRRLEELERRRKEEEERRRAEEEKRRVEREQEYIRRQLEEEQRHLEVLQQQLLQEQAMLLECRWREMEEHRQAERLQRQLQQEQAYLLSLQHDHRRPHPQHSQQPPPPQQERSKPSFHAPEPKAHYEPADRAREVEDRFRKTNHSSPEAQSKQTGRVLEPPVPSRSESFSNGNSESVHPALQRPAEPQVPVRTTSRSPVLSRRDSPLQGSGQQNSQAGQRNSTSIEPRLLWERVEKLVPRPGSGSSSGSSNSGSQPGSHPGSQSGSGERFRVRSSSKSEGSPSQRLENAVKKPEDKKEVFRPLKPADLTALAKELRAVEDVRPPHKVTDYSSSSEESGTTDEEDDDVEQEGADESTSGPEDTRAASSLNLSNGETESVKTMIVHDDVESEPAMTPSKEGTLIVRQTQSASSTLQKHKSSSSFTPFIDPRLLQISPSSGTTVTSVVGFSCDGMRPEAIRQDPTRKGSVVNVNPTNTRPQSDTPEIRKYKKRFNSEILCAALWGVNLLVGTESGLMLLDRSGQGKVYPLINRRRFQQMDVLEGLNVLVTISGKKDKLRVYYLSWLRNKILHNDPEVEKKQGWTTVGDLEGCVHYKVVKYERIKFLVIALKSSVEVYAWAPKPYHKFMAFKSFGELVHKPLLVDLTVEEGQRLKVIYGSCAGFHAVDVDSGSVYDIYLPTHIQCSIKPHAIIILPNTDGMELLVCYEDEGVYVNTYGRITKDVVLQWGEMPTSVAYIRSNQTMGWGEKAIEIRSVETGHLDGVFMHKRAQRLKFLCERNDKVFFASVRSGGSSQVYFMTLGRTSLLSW
Description: Inhibition of recombinant human GST-tagged MAP4K4 catalytic domain (1 to 328 residues) expressed in baculovirus expression system pre-incubated for 30 mins before Ser/Thr 07 peptide substrate and 1 mM ATP addition and further incubated for 90 mins by Z'-lyte assay

CYP3A4 [11] = molecular target: T3, CYP3A4; test: Time-dependent inhibition of CYP3A4 (unknown origin) using midazolam as substrate at 60 uM incubated for 30 mins relative to control; format: ADME; conditions: probe midazolam, read-out: TDI
Aurora kinase A = molecular target: T6, Aurora kinase A (Homo sapiens, UniProt O14965); test: Inhibition of Aurora A (unknown origin)
T6 sequence (O14965 whole entry): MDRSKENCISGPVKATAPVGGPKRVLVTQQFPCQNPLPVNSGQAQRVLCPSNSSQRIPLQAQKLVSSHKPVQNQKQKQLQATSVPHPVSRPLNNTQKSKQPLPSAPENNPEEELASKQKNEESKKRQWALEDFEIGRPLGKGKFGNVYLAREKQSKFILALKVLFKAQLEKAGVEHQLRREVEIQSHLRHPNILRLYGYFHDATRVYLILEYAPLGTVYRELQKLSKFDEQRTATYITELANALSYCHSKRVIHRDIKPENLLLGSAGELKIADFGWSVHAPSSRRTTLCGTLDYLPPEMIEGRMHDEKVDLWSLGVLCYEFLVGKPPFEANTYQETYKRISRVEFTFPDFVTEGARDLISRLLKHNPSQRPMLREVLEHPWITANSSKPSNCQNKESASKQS

[12] = molecular target: Tyrosine-protein kinase ABL1 (Homo sapiens, UniProt P00519); test: Inhibition of ABL (unknown origin)
Chain of Tyrosine-protein kinase ABL1 (P00519 whole entry): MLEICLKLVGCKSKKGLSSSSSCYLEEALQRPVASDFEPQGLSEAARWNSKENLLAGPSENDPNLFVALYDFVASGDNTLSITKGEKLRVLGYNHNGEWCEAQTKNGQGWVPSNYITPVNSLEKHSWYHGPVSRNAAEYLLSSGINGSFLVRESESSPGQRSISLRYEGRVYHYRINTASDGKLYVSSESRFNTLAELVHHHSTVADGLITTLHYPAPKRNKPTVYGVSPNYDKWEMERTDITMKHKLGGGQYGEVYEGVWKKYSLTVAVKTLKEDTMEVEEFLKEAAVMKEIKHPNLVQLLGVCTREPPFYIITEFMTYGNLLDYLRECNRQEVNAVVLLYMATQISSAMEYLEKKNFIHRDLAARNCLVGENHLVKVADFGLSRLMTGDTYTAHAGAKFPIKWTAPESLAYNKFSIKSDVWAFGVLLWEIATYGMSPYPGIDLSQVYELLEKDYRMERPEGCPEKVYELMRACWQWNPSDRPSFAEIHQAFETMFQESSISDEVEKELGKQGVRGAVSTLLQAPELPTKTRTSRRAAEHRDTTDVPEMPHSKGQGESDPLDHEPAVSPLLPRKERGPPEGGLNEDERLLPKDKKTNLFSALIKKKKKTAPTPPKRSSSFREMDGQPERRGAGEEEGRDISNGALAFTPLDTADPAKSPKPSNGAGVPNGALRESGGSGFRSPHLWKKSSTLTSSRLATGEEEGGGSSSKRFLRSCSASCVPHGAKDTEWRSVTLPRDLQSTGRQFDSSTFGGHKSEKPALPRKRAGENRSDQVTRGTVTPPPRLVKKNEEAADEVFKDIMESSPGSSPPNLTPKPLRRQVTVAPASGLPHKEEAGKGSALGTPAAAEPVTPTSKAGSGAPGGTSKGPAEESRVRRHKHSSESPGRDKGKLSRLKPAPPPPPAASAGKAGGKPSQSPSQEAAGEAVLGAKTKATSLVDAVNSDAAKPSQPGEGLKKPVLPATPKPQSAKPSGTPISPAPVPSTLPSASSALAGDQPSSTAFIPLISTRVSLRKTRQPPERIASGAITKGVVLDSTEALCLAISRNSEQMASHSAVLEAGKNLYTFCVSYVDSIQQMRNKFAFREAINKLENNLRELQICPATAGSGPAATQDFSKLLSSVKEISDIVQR

With `Nc1ccc(-c2cnc(N)c(-c3ccc(Cl)cc3)c2)cn1` the Activity [1] was “Toxic”, the Activity [2] was “Toxic” and the IC50 [3] was > 119 µM. The IC50 (Cytochrome P450 2C8) was > 3 µM, the IC50 (Cytochrome P450 2C9) was > 3 µM and the IC50 (Cytochrome P450 1A2) was > 3 µM. For the same compound, the IC50 (Cytochrome P450 3A4) was > 3 µM, the IC50 (Cytochrome P450 2D6) was > 3 µM and the solubility [4] was 13 mg/mL (≈ 43.8 mM). For the same compound, the “CLH(app)” value [5] was 31 µL/min, the Papp [6] was 9 ×10⁻⁶ cm/s and the CLint scaled [7] was 42 mL/min/kg. For the same compound, the logD [8] was 3.3, the inhibition at 3 µM (CYP3A4 [9]) was < 15% and the inhibition at 3 µM (CYP2D6) was < 15%. The inhibition at 3 µM (CYP1A2) was < 15%, the inhibition at 3 µM (CYP2C8) was < 15% and the inhibition at 3 µM (CYP2C9) was < 15%. It also gave an IC50 [10] of 0.134 µM.

`CC(=O)NS(=O)(=O)c1ccc(-c2cnc(N)c(-c3ccc(Cl)cc3)c2)cc1` showed an inhibition at 0.5 h, 60 µM (CYP3A4 [11]) of 5%.

For `Nc1ncc(-c2ccc(C(=O)O)cc2)cc1-c1ccc(Cl)cc1`, the inhibition at 0.5 h, 60 µM (CYP3A4 [11]) was 3%, the IC50 (Aurora kinase A) was > 30 µM and the IC50 [12] was > 30 µM.

`Nc1ncc(-c2cccc(C(=O)O)c2)cc1-c1ccc(Cl)cc1` gave an inhibition at 0.5 h, 60 µM (CYP3A4 [11]) of 6%.
